According to the NIST ThermoML archive (doi:10.1016/j.jct.2007.04.011):
Numbers after ± are expanded uncertainties.

What was measured:
[1] = 298.15 K, 101.33 kPa, Liquid
[2] = molar heat capacity at constant pressure; conditions: 101.33 kPa, Liquid
[3] = xn = mol fraction of the nth substance listed; conditions: 101 kPa, Liquid, Small sample (50 mg) DSC

CCCCO [butan-1-ol]
Conditions | mass density [kg/m3]
[1] | 805.77 ± 0.29

[2]
Conditions | molar heat capacity at constant pressure [J/K/mol]
293.15 K | 173.8 ± 1.5
298.15 K | 177.1 ± 1.5
303.15 K | 180.61 ± 1.6
308.15 K | 184.28 ± 1.6
313.15 K | 188.02 ± 1.6
318.15 K | 192.1 ± 1.7
323.15 K | 196.13 ± 1.7
328.15 K | 200.4 ± 1.7
333.15 K | 204.72 ± 1.8
338.15 K | 209.16 ± 1.8
343.15 K | 213.57 ± 1.9
348.15 K | 218.1 ± 1.9
353.15 K | 222.54 ± 1.9

OCCCCO [1,4-butanediol] + CCCCO
excess molar heat capacity [J/K/mol], [3]
Conditions | x1 = 0.0804 | x1 = 0.1099 | x1 = 0.1826 | x1 = 0.2497 | x1 = 0.3244 | x1 = 0.5919
293.15 K | 0.031 ± 0.15 | 0.095 ± 0.16 | 0.129 ± 0.16 | 0.127 ± 0.16 | 0.089 ± 0.16 | 0.005
298.15 K | – | 0.096 ± 0.16 | 0.011 | 0.093 ± 0.16 | 0.016 ± 0.15 | –
303.15 K | – | 0.055 ± 0.16 | – | 0.025 ± 0.15 | – | –

CC(O)C(C)O (stereo unspecified) [2,3-butanediol]
Conditions | mass density [kg/m3]
[1] | 1000.4 ± 0.5

[2]
Conditions | molar heat capacity at constant pressure [J/K/mol]
298.15 K | 236.67 ± 2
303.15 K | 239.28 ± 2.1
308.15 K | 241.85 ± 2.1
313.15 K | 244.35 ± 2.1
318.15 K | 246.82 ± 2.1
323.15 K | 249.23 ± 2.2
328.15 K | 251.6 ± 2.2
333.15 K | 253.91 ± 2.2
338.15 K | 256.17 ± 2.2
343.15 K | 258.39 ± 2.2
348.15 K | 260.55 ± 2.3
353.15 K | 262.67 ± 2.3

OCCCCO [1,4-butanediol]
Conditions | mass density [kg/m3]
[1] | 1012.75 ± 0.54

[2]
Conditions | molar heat capacity at constant pressure [J/K/mol]
293.15 K | 200.39 ± 1.7
298.15 K | 203.06 ± 1.8
303.15 K | 205.82 ± 1.8
308.15 K | 208.65 ± 1.8
313.15 K | 211.57 ± 1.8
318.15 K | 214.55 ± 1.9
323.15 K | 217.61 ± 1.9
328.15 K | 220.72 ± 1.9
333.15 K | 223.9 ± 1.9
338.15 K | 227.12 ± 2
343.15 K | 230.4 ± 2
348.15 K | 233.72 ± 2
353.15 K | 237.07 ± 2

CC(O)CC(C)(C)O (stereo unspecified) [2-methyl-2,4-pentanediol]
Conditions | mass density [kg/m3] | molar heat capacity at constant pressure [J/K/mol]
[1], Vibrating tube method | 918.22 ± 0.3 | –
[2], 298.15 K | – | 263.09 ± 2
[2], 303.15 K | – | 267.1 ± 2.1
[2], 308.15 K | – | 271.31 ± 2.1
[2], 313.15 K | – | 275.53 ± 2.1
[2], 318.15 K | – | 279.94 ± 2.2
[2], 323.15 K | – | 284.5 ± 2.2
[2], 328.15 K | – | 289.17 ± 2.2
[2], 333.15 K | – | 293.9 ± 2.3
[2], 338.15 K | – | 298.68 ± 2.3
[2], 343.15 K | – | 303.35 ± 2.4
[2], 353.15 K | – | 313.68 ± 2.4

CCC(O)CO (stereo unspecified) [1,2-butanediol]
Conditions | mass density [kg/m3]
[1] | 998.408 ± 0.5

[2]
Conditions | molar heat capacity at constant pressure [J/K/mol]
288.15 K | 225.51 ± 1.9
293.15 K | 228.22 ± 2
298.15 K | 230.94 ± 2
303.15 K | 233.64 ± 2
308.15 K | 236.32 ± 2
313.15 K | 238.97 ± 2.1
318.15 K | 241.59 ± 2.1
323.15 K | 244.18 ± 2.1
328.15 K | 246.72 ± 2.1
333.15 K | 249.2 ± 2.2
338.15 K | 251.63 ± 2.2
343.15 K | 254 ± 2.2
348.15 K | 256.29 ± 2.2
353.15 K | 258.5 ± 2.2
358.15 K | 260.63 ± 2.3
